Assay results from BigSolDB 2.1.

O=C(O)CC[C@H](NC(=O)OCC1c2ccccc2-c2ccccc21)C(=O)O
solubility (mole fraction)
Conditions	283.15 K	288.15 K	293.15 K	298.15 K	303.15 K	308.15 K	313.15 K	318.15 K	323.15 K
in 2-butanone	0.0112	0.0112	0.012	0.0127	0.0136	0.0143	0.0157	0.0176	0.0191
in acetone	0.0243	0.0261	0.0274	0.0295	0.0323	0.0342	0.0393	0.0437	0.0471
in acetonitrile	0.000662	0.000708	0.0008	0.000997	0.00123	0.00139	0.00166	0.00194	0.00232
in dimethyl carbonate	0.00058	0.000625	0.000736	0.000819	0.000911	0.00108	0.00123	0.00157	0.00186
in ethanol	0.0231	0.0257	0.0276	0.0319	0.0371	0.0419	0.0468	0.0514	0.0598
in ethyl acetate	0.00239	0.0026	0.00296	0.00318	0.00347	0.00391	0.00451	0.00498	0.0056
in isopropanol	0.0139	0.0142	0.0156	0.0175	0.0199	0.0238	0.0269	0.0302	0.0351
in methanol	0.0246	0.0266	0.0295	0.0325	0.0364	0.0413	0.0471	0.0525	0.0611
in methyl acetate	0.00319	0.00355	0.00388	0.00418	0.00473	0.00535	0.00609	0.00726	0.00888
in n-butanol	0.00911	0.00972	0.0102	0.0114	0.0127	0.0141	0.016	0.0173	0.0199
in n-butyl acetate	0.00177	0.00182	0.00204	0.0022	0.00238	0.00269	0.00309	0.0034	0.00381
in n-pentanol	0.00655	0.00765	0.00845	0.00993	0.0112	0.0128	0.0159	0.0187	0.0221
in n-propanol	0.0138	0.0146	0.0155	0.0172	0.02	0.0237	0.0258	0.03	0.0333
in n-propyl acetate	0.0016	0.00169	0.00192	0.00204	0.00232	0.00247	0.00281	0.00317	0.00355
